Assay results from ChEMBL document CHEMBL1151494, “Synthesis of new building blocks for peptide nucleic acids containing monomers with variations in the backbone” (Bioorg Med Chem Lett, 1997).
Activity calls are given as the source filed them. The calls are words filed in the database; no cut-off is given here.

What was measured:
[1] = The stability against nucleases; Active
[2] = system: Proteinase K (Tritirachium album); experiment: The stability against proteinase K; Active

| SMILES | Stability [1] | Stability [2] |
| --- | --- | --- |
| Cc1cn(CC(=O)N2C[C@@H](N)C[C@H]2C(=O)NC2C[C@@H](C(=O)N[C@H]3C[C@@H](C(=O)NC4C[C@@H](C(=O)N[C@H]5C[C@@H](C(=O)NC6C[C@@H](C(=O)N[C@H]7C[C@@H](C(=O)NC8C[C@@H](C(=O)N[C@@H](C)C(=O)O)N(C(=O)Cn9cc(C)c(=O)[nH]c9=O)C8)N(C(=O)Cn8cc(C)c(=O)[nH]c8=O)C7)N(C(=O)Cn7cc(C)c(=O)[nH]c7=O)C6)N(C(=O)Cn6cc(C)c(=O)[nH]c6=O)C5)N(C(=O)Cn5cc(C)c(=O)[nH]c5=O)C4)N(C(=O)Cn4cc(C)c(=O)[nH]c4=O)C3)N(C(=O)Cn3cc(C)c(=O)[nH]c3=O)C2)c(=O)[nH]c1=O (stereo partly drawn) | Active | Active |
| Cc1cn([C@@H]2C[C@@H](C(=O)NCC(=O)O)N(C(=O)CNC(=O)[C@@H]3C[C@@H](n4cc(C)c(=O)[nH]c4=O)CN3C(=O)CNC(=O)[C@@H]3C[C@@H](n4cc(C)c(=O)[nH]c4=O)CN3C(=O)CNC(=O)[C@@H]3C[C@@H](n4cc(C)c(=O)[nH]c4=O)CN3C(=O)CNC(=O)[C@@H]3C[C@@H](n4cc(C)c(=O)[nH]c4=O)CN3C(=O)CNC(=O)[C@@H]3C[C@@H](n4cc(C)c(=O)[nH]c4=O)CN3C(=O)CNC(=O)[C@@H]3C[C@@H](n4cc(C)c(=O)[nH]c4=O)CN3C(=O)CNC(=O)[C@@H]3C[C@@H](n4cc(C)c(=O)[nH]c4=O)CN3C(=O)[C@@H](N)CCCCN)C2)c(=O)[nH]c1=O | Active | Active |
| Cc1cn(CC(=O)N2C[C@H](N)C[C@H]2C(=O)NC2C[C@@H](C(=O)N[C@@H]3C[C@@H](C(=O)NC4C[C@@H](C(=O)N[C@@H]5C[C@@H](C(=O)NC6C[C@@H](C(=O)N[C@@H]7C[C@@H](C(=O)NC8C[C@@H](C(=O)N[C@@H](C)C(=O)O)N(C(=O)Cn9cc(C)c(=O)[nH]c9=O)C8)N(C(=O)Cn8cc(C)c(=O)[nH]c8=O)C7)N(C(=O)Cn7cc(C)c(=O)[nH]c7=O)C6)N(C(=O)Cn6cc(C)c(=O)[nH]c6=O)C5)N(C(=O)Cn5cc(C)c(=O)[nH]c5=O)C4)N(C(=O)Cn4cc(C)c(=O)[nH]c4=O)C3)N(C(=O)Cn3cc(C)c(=O)[nH]c3=O)C2)c(=O)[nH]c1=O (stereo partly drawn) | Active | Active |
| Cc1cn([C@H]2C[C@@H](C(=O)NCC(=O)O)N(C(=O)CNC(=O)[C@@H]3C[C@H](n4cc(C)c(=O)[nH]c4=O)CN3C(=O)CNC(=O)[C@@H]3C[C@H](n4cc(C)c(=O)[nH]c4=O)CN3C(=O)CNC(=O)[C@@H]3C[C@H](n4cc(C)c(=O)[nH]c4=O)CN3C(=O)CNC(=O)[C@@H]3C[C@H](n4cc(C)c(=O)[nH]c4=O)CN3C(=O)CNC(=O)[C@@H]3C[C@H](n4cc(C)c(=O)[nH]c4=O)CN3C(=O)CNC(=O)[C@@H]3C[C@H](n4cc(C)c(=O)[nH]c4=O)CN3C(=O)CNC(=O)[C@@H]3C[C@H](n4cc(C)c(=O)[nH]c4=O)CN3C(=O)[C@@H](N)CCCCN)C2)c(=O)[nH]c1=O | Active | Active |
